The values that follow are results of earlier work, collected in patent US20030039681A1, “Rapid growth dairy heifers having reduced mammary fat content” (priority 2001, published 2003).

One data set deals with lactating dairy cattle. To be noted: abomasal infusion.
In another data set the test system is adipose tissue. To be noted: growing pigs, CLA-supplement fed.

On to conjugated linoleic acid [CLA], for which the milk fat content entry in the data set with lactating dairy cattle is recorded as “decreases”. In the data set with adipose tissue, the carcass lipid content entry is “lower” and the “lipogenesis in adipose tissue” value is “decreases”. Moreover, the proliferation of preadipocytes entry in the data set with preadipocytes is recorded as “inhibits”.
